Source: patent publication US20190151346A1, “COMBINATIONS THERAPIES FOR THE TREATMENT OF CANCER” (INSERM (INSTITUTE NATIONAL DE LA SANTÉ ET DE LA RECHERCHE …, priority 2016, published 2019)

Legend:
Type in all cases: cell-based
EGFR [1] = test: Tyrosine phosphorylation by Western blotting: EGFR phosphorylation in TNBC cell lines; conditions: for IL-17E- and EGF-induced phosphorylation of Y1086 EGFR: AZM475271 10 μM pre-treatment, FIG. 2A
Protocol: BT20 and MDA-MB468 triple negative (HER2-, ER-, PR-) were obtained from American Type Culture Collection (ATCC N°HTB19, and ATCC N°HTB132, respectively). […] MDA-MB468 cells were grown in a complete DMEM-F12 media with glutamine, 10% FCS and penicillin—streptomycin. All cells were maintained in a humidified 5% CO2 atmosphere at 37° C. All experiments were conducted with cells at confluency and starved for an overnight.
(§1) Cells (3×10^5) were seeded in 6-well plates in complete medium for 24 hours then starved for another overnight. Cells were then stimulated with IL-17E (10 ng/ml), EGF (10 ng/ml), or a combination of both for 30 min in serum-free medium. Cells were then lysed in 1% Triton X100 buffer and left on ice for 1 hours. Protein samples were then subjected to 8% SDS-PAGE. Western blotting using specific antibodies assessed then the phosphorylation of the various kinases.

Src = test: Tyrosine phosphorylation by Western blotting: Src phosphorylation in TNBC cell lines
Protocol: (§2) BT20 and MDA-MB468 triple negative (HER2-, ER-, PR-) were obtained from American Type Culture Collection (ATCC N°HTB19, and ATCC N°HTB132, respectively). The LumB, and Her2-, ER-, PR-negative IJG-1731 cell line was previously established at the laboratory as described (Mombelli et al. Sci Rep. 2015 Jul. 8; 5:11874.) BT20 and IJG-1731 cells were grown in complete RPMI-1640 media with L-glutamine, supplemented with 10% fetal calf serum (FCS) and penicillin—streptomycin solution (100 μg/ml each) (Life technology, Saint-Aubain, France). MDA-MB468 cells were grown in a complete DMEM-F12 media with glutamine, 10% FCS and penicillin—streptomycin. All cells were maintained in a humidified 5% CO2 atmosphere at 37° C. All experiments were conducted with cells at confluency and starved for an overnight.
as §1

STAT3 = test: Cellular fractionation and Western blotting: STAT3 and pSTAT3 translocation to the nucleus; conditions: MDA-MB468 fractions
Protocol: as §2
Cells (3×10^5) were seeded in 6-well plates in complete medium for 24 hours then starved for another overnight. Cells were stimulated for 2 hours at 37° C. with IL-17E (10 ng/ml), EGF (long/ml), or a combination of both as indicated. Cells were then washed with PBS and lysed in a lysis buffer (HEPES 10 mM, MgCl2 15 mM KCl 10 mM, DTT 0.5 mM, PMSF 0.2 mM, 1 mM Na3VO4, 10 mM NaF, 0.5% Nonidet P-40). […] Protein concentrations were determined by using Bradford method. […]

EGFR [2] = test: Immunofluorescence microscopy: localization of EGFR; conditions: MDA-MB468; 10 ng/ml, 2 hours; FIG. 4A, FIG. 7
Protocol: as §2
Cells (4.10^3) were grown on Lab-Tek chambers slide in their respective complete culture medium for 24 hours then starved for an overnight. Cells were then stimulated with IL-17E (long/ml), EGF (10 ng/ml) or a combination of both for 2 hours at 37° C., washed, and fixed with 4% paraformaldehyde (PFA)-PBS solution at 4° C. […] Slides were mounted with mounting medium containing Dapi then visualized with a Leica DMRB fluorescence microscope and images analysis was performed with the Archimed Software (Microvision).

Row | Compound | IL-17E- and EGF-induced phosphorylation of Y1086 EGFR (EGFR [1]; IJG-1731 and BT20 cell lines) | IL-17E- and EGF-induced phosphorylation of Y1086 EGFR (EGFR [1]; MDA-MB468) | EGFR activation downstream IL-17E or IL-17B (EGFR [1]; TNBC cells, Src specific inhibitor, discussion, FIG. 6) | IL-17E- and EGF-induced Src phosphorylation (Src; TNBC cell lines pre-treated with AZM475271 (10 μM), then stimulated with IL-17E or EGF (10 ng/ml), FIG. 2A) | phosphorylation of Src at Y416 at suboptimal concentrations (Src; MDA-MB468, IL-17E 1 ng/ml alone or EGF 0.1-1 ng/ml alone, FIG. 3) | phosphorylation of STAT3α and β (STAT3) | translocation of EGFR (immunofluorescence) (EGFR [2])
1 | COc1ccc(Cl)c(Nc2ncnc3cc(OCC4CCN(C)CC4)c(OC)cc23)c1 [AZM475271] | abolished | to a lesser extent | inhibition | inhibited |  |  | 
2 | EGF: epidermal growth factor, EGFR ligand used as stimulus (NSDSECPLSHDGYCLHDGVCMYIEALDKYACNCVVGYIGERCQYRDLKWWELR; Epidermal growth factor; UniProt P01133 971-1023, looked up) |  |  |  |  | failed to induce any significant phosphorylation | induced the phosphorylation | induced strong translocation of EGFR from the membrane to the nucleus
